Measurements published in patent US20130209439A1, “INHIBITORS OF PDE4 BINDING TO HSP20” (THE UNIVERSITY COURT OF THE UNIVERSITY OF GLASGOW, priority 2010, published 2013).
Where no end group is shown, it is not given here.

Experiments:
[1] = tested on: neonatal cardiac myocytes; assay: Cardiac myocyte cell size, manual cross-sectional area; type: cell-based, rat; conditions: 24 hour isoprenaline 10 μM, 30 min pre-treatment with 10 μM peptide
Protocol: FIG. 7. Peptide disruption of the PDE4D-HSP20 complex attenuates the hypertrophic response triggered by constant […]-agonist treatment. A, Upper panel. The area covered by isolated cardiac myocytes was used as a measure of cell size. Lower panel, Graphical depiction of the mean areas (N=100) of cells following 24 hours of indicated treatments. B, impedance measurements were used to calculate continuous normalised cell index using exCELLigence technology Normalised mean (n=4) cell index after 24 hours of indicated treatments.
Cardiomyocytes were plated out on gelatin (Sigma) pre-coated 6-well plates and placed in an incubator at 37° C. and an atmosphere of 5% CO2. After 24 h the cardiomyocytes were cultured in a serum-free condition for 48 h before experiments. The cardiomyocytes were then challenged for 24 h with either 10 μM isoprenaline alone or isoprenaline following a 30 min pre-treatment with 10 μM rolipram, 10 μM bs906 or 10 μM control peptide. Thereafter, cell size was determined on phase-contrast microscope. […] from randomly selected microscope images (400×) were captured digitally and analysed. Cross-sectional area was determined by the following formula: cross-sectional area=(radius)^2×π. Values are expressed as means±SE of five separate culture preparations. A f-test was performed to compare the two groups, and the P values are indicated.

PDE4D5-HSP20 complex = target: T1, PDE4D5-HSP20 complex (Homo sapiens, UniProt O14558); assay: Immunoprecipitation of HSP20 probed for PDE4D5, HEK293 cell lysate; type: binding; conditions: HEK293 cells transfected with HSP20 and PDE4D5, increasing peptide concentrations
T1 construct: containing the open reading frame of Hsp20 in pENTR221 vector, was used to generate pcDNA6.2-Hsp20; expressed in transfected cells; host or cells: HEK293 cells
T1 sequence (O14558 1-160): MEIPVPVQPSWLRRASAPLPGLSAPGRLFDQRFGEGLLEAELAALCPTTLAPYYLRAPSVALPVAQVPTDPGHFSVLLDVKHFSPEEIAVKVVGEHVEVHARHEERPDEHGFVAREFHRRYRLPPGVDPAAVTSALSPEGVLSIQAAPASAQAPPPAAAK
Source text: (§1) FIG. 6. Peptide disruption of the PDE4D-HSP20 complex promotes PKA phosphorylation on Ser16. A, Upper panel. HEK293 cells were transfected with HSP20 and PDE4D5. Immunoprecipitation of HSP20 done in the presence increasing concentrations of Peptide 906 (SEQ ID NO: 36) and Peptide control (SEQ ID NO: 37) were probed for PDE4D5. Lower panel. Densitometric analysis of amount of PDE4D5 in HSP20 immunoprecipitates normalised to expression level. Data representative of n=3. B, Purified preparations of HSP20-His and PDE4D5-GST were subject to an ELISA assay containing increasing amounts of ‘Peptide 906’ and ‘peptide control’. C, Upper panel, HSP20 was transfected into HEK293 cells and treated with ‘Peptide 906’ for indicated times. Cellular lysates were blotted for HSP20 and phospho-HSP20. Middle panel, HSP20 was transfected into HEK293 cells and treated with ‘Peptide 906’ or ‘peptide control’ for indicated times. Cellular lysates were blotted for HSP20 and phospho-HSP20. Lower panel, Densitometric analysis of phosphorylation of HSP20 normalised to expression level (n=3).
(§2) HEK293B2 cells are a stable cell line overexpressing the GFP-tagged β2AR were cultured as previously described^48. […] Protein concentration of lysates were determined using the Bradford assay and all samples were equalised for protein concentration. […]

[2] = tested on: phospho-HSP20 in HEK293 cells; assay: HSP20 Ser16 phosphorylation in HSP20-transfected HEK293 cells treated with peptide; type: cell-based; conditions: 10 μM peptide, 0-120 min
Source text: as §1
PolyFect transfection reagent was from Qiagen. […]
as §2

“Peptide 906: stearoylated, cell-permeable disrupter peptide of PDE4D5 residues E468-K492 (SEQ ID NO: 36) (ENHHLAVGFKLLQEENSDIFQNLTK; also: stearoylated, site not given here)” was tested, and the “cell size (cross-sectional area) of cardiac myocytes” value [1] was “could be rescued”, the “association between PDE4D5 and HSP20 in immunoprecipitation from cellular lysate” value (PDE4D5-HSP20 complex) was “attenuated the association between PDE4D5 and HSP20” and the “phosphorylation of HSP20 at Ser16” value [2] was “robust and significant increase in the phosphorylation of HSP20 at Ser16”.
